In US12552783B2, “Modulators of proteolysis and associated methods of use” (Arvinas Operations, Inc., priority 2018, dated 2026):
Values belong to the compound of their own block, whether it stands above or below them.

How the values were obtained:
Type in all cases: cell-based
KRas [1] = target: T1, KRas (Homo sapiens, UniProt P01116, G12C); experiment: KRas degradation in H2030 cells by Western blot (data of Table 5); set-up: host or cells: NCI-H2030; settings: H2030 cells serum starved 24 hours, KRas immunoblot; for H2030 Degradation at 0.3 uM: treated 24 hours with 0.3 uM; for H2030 Degradation at 1 uM: treated 24 hours with 1 uM; for H2030 Degradation at 3 uM: treated 24 hours with 3 uM
Method: Cell Lines, Antibodies, and Reagents. NCI-H2030 (CRL-5914) and SW1573 (CRL-2170) cells were purchased from ATCC. Both cell lines are homozygous for the G12C mutation in KRas. NCI-H2030 cells were cultured in RPMI-1640 medium containing 1% penicillin-streptomycin and 10% fetal bovine serum (FBS). SW1573 cells were cultured in DMEM containing 1% penicillin-streptomycin and 10% FBS. The KRas detection antibody (Cat. No. LS-C175665) was purchased from LifeSpan Biosciences and was used at a dilution of 1:2000. GAPDH was detected using an antibody purchased from Cell Signaling Technology (Cat. No. 5174) and was diluted 1:3000. Secondary anti-mouse and anti-rabbit detection antibodies were purchased from Cell Signaling Technology (Cat. Nos. 7076 and 7074, respectively).
Compound Treatment and Western Blotting of the Data of Table 5. H2030 cells in 12-well plates were serum starved for 24 hours, and then treated with 0.3 uM, 1 uM, and 3 uM of the indicated bifunctional compound, for 24 hours. Cells were lysed in a Cell Signaling Technology Cell Lysis Buffer (Cat. No. #9803) supplemented with protease inhibitors, and proteins were separated by SDS-PAGE. KRas was detected by immunoblotting using the LSBio antibody (Cat. No. LS-C175665).
DC50 is the half-maximal degradation concentration—i.e., the concentration at which 50% degradation is observed. DMax is the maximum degradation efficacy is achieved—i.e., the maximal degradation observed) degradation data.

KRas [2] = target: T1, KRas; experiment: KRas degradation in NCI-H2030 cells by Western blot, normalized to GAPDH (data of Table 14); set-up: host or cells: NCI-H2030; settings: for Dmax: NCI-H2030
How it was run: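 Degradation of endogenous homozygous G12C KRas is measured by immunoblot after serum starvation and compound exposure at three final concentrations (0.3, 1 and 3 μM). VHL-recruiting compounds are incubated 24 h and all others 72 h. Percent loss is calculated from GAPDH-normalized KRas relative to vehicle.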

KRas [3] = target: T1, KRas; experiment: KRas degradation in SW1573 cells by Western blot, normalized to GAPDH (data of Table 14)
How it was run: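 SW1573 cells, homozygous for the KRas G12C mutation and maintained in DMEM with 10% FBS and 1% penicillin-streptomycin, were seeded in 12-well plates, allowed to attach overnight at 37° C. under 5% CO2, then serum-starved for 24 hours before compound exposure. KRas levels were measured by Western blot, normalized to GAPDH, and compared with DMSO controls to give percent degradation, DC50 and Dmax.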

H2030 Degradation at 0.3 uM (KRas [1]): C (C < 25) | H2030 Degradation at 1 uM (KRas [1]): A (A ≥ 50) | H2030 Degradation at 3 uM (KRas [1]): A (A ≥ 50)
Structure (SMILES): C=CC(=O)N1CCN(c2nc(NCCC(=O)N(C)CCOCCOCCOCCOCC(=O)N[C@H](C(=O)N3C[C@H](O)C[C@H]3C(=O)N[C@@H](C)c3ccc(-c4scnc4C)cc3)C(C)(C)C)nc3c(F)c(-c4cc(O)cc5ccccc45)c(Cl)cc23)CC1 [compound 1, (2S,4R)-1-((2S)-21-((4-(4-acryloylpiperazin-1-yl)-6-chloro-8-fluoro-7-(3-hydroxynaphthalen-1-yl)quinazolin-2-yl)amino)-2-(tert-butyl)-18-methyl-4,19-dioxo-6,9,12,15-tetraoxa-3,18-diazahenicosanoyl)-4-hydroxy-N-((S)-1-(4-(4-methylthiazol-5-yl)phenyl)ethyl) pyrrolidine-2-carboxamide]

H2030 Degradation at 0.3 uM (KRas [1]): C (C < 25) | H2030 Degradation at 1 uM (KRas [1]): A (A ≥ 50) | H2030 Degradation at 3 uM (KRas [1]): A (A ≥ 50)
Structure (SMILES): C=CC(=O)N1CCN(c2nc(NCCC(=O)N(C)CCOCCOCCOCCOCCOCC(=O)N[C@H](C(=O)N3C[C@H](O)C[C@H]3C(=O)N[C@@H](C)c3ccc(-c4scnc4C)cc3)C(C)(C)C)nc3c(F)c(-c4cc(O)cc5ccccc45)c(Cl)cc23)CC1 [compound 2, (2S,4R)-1-((2S)-24-((4-(4-acryloylpiperazin-1-yl)-6-chloro-8-fluoro-7-(3-hydroxynaphthalen-1-yl)quinazolin-2-yl)amino)-2-(tert-butyl)-21-methyl-4,22-dioxo-6,9,12,15,18-pentaoxa-3,21-diazatetracosanoyl)-4-hydroxy-N-((S)-1-(4-(4-methylthiazol-5-yl)phenyl)ethyl) pyrrolidine-2-carboxamide]

H2030 Degradation at 0.3 uM (KRas [1]): C (C < 25) | H2030 Degradation at 1 uM (KRas [1]): B (25 ≤ B < 50) | H2030 Degradation at 3 uM (KRas [1]): B (25 ≤ B < 50)
Structure (SMILES): C=CC(=O)N1CCN(c2nc(NCCC(=O)N(C)CCOCCOCCOCCNc3cccc4c3C(=O)N(C3CCC(=O)NC3=O)C4=O)nc3c(F)c(-c4cc(O)cc5ccccc45)c(Cl)cc23)CC1 (stereo not drawn) [compound 3, 3-((4-(4-acryloylpiperazin-1-yl)-6-chloro-8-fluoro-7-(3-hydroxynaphthalen-1-yl)quinazolin-2-yl)amino)-N-(2-(2-(2-(2-((2-(2,6-dioxopiperidin-3-yl)-1,3-dioxoisoindolin-4-yl)amino)ethoxy)ethoxy)ethoxy)ethyl)-N-methylpropanamide]

H2030 Degradation at 0.3 uM (KRas [1]): C (C < 25) | H2030 Degradation at 1 uM (KRas [1]): B (25 ≤ B < 50) | H2030 Degradation at 3 uM (KRas [1]): B (25 ≤ B < 50)
Structure (SMILES): C=CC(=O)N1CCN(c2nc(NCCC(=O)N(C)CCOCCOCCOCC(=O)N[C@H](C(=O)N3C[C@H](O)C[C@H]3C(=O)N[C@@H](C)c3ccc(-c4scnc4C)cc3)C(C)(C)C)nc3c(F)c(-c4cc(O)cc5ccccc45)c(Cl)cc23)CC1 [compound 4, (2S,4R)-1-((2S)-18-((4-(4-acryloylpiperazin-1-yl)-6-chloro-8-fluoro-7-(3-hydroxynaphthalen-1-yl)quinazolin-2-yl)amino)-2-(tert-butyl)-15-methyl-4,16-dioxo-6,9,12-trioxa-3,15-diazaoctadecanoyl)-4-hydroxy-N-((S)-1-(4-(4-methylthiazol-5-yl)phenyl)ethyl) pyrrolidine-2-carboxamide]

H2030 Degradation at 0.3 uM (KRas [1]): C (C < 25) | H2030 Degradation at 1 uM (KRas [1]): B (25 ≤ B < 50) | H2030 Degradation at 3 uM (KRas [1]): B (25 ≤ B < 50)
Structure (SMILES): C=CC(=O)N1CCN(c2nc(NCCC(=O)N(C)CCOCCOCCOCCOCCOc3ccc4c(c3)CN(C3CCC(=O)NC3=O)C4=O)nc3c(F)c(-c4cc(O)cc5ccccc45)c(Cl)cc23)CC1 (stereo not drawn) [compound 5, 3-((4-(4-acryloylpiperazin-1-yl)-6-chloro-8-fluoro-7-(3-hydroxynaphthalen-1-yl)quinazolin-2-yl)amino)-N-(14-((2-(2,6-dioxopiperidin-3-yl)-1-oxoisoindolin-5-yl)oxy)-3,6,9,12-tetraoxatetradecyl)-N-methylpropanamide]

H2030 Degradation at 0.3 uM (KRas [1]): C (C < 25) | H2030 Degradation at 1 uM (KRas [1]): C (C < 25) | H2030 Degradation at 3 uM (KRas [1]): C (C < 25)
Structure (SMILES): CCC(=O)N1CCN(c2nc(NCCC(=O)N(C)CCOCCOCCOCCOCC(=O)N[C@H](C(=O)N3C[C@H](O)C[C@H]3C(=O)N[C@@H](C)c3ccc(-c4scnc4C)cc3)C(C)(C)C)nc3c(F)c(-c4cc(O)cc5ccccc45)c(Cl)cc23)CC1 [compound 6, (2S,4R)-1-((2S)-2-(tert-butyl)-21-((6-chloro-8-fluoro-7-(3-hydroxynaphthalen-1-yl)-4-(4-propionylpiperazin-1-yl)quinazolin-2-yl)amino)-18-methyl-4,19-dioxo-6,9,12,15-tetraoxa-3,18-diazahenicosanoyl)-4-hydroxy-N-((S)-1-(4-(4-methylthiazol-5-yl)phenyl)ethyl) pyrrolidine-2-carboxamide]

Percent Degradation at Indicated Concentration (μM) (KRas [2]; H2030 cells, 0.3 μM): C (Percent Degradation: C ≤ 35) | Percent Degradation at Indicated Concentration (μM) (KRas [2]; H2030 cells, 1 μM): C (Percent Degradation: C ≤ 35) | Percent Degradation at Indicated Concentration (μM) (KRas [2]; H2030 cells, 3 μM): C (Percent Degradation: C ≤ 35) | Dmax (KRas [2]; H2030 cells): ≤ 35% | DC50 (KRas [3]; SW1573 cells): ≥ 1000 nM | Dmax (KRas [3]; SW1573 cells): ≤ 35% | Percent Degradation at Indicated Concentration (μM) (KRas [3]; SW1573 cells, 0.01 μM): C (Percent Degradation: C ≤ 35) | Percent Degradation at Indicated Concentration (μM) (KRas [3]; SW1573 cells, 0.03 μM): C (Percent Degradation: C ≤ 35) | Percent Degradation at Indicated Concentration (μM) (KRas [3]; SW1573 cells, 0.1 μM): C (Percent Degradation: C ≤ 35) | Percent Degradation at Indicated Concentration (μM) (KRas [3]; SW1573 cells, 0.3 μM): C (Percent Degradation: C ≤ 35) | Percent Degradation at Indicated Concentration (μM) (KRas [3]; SW1573 cells, 1 μM): C (Percent Degradation: C ≤ 35)
Structure (SMILES): C=CC(=O)N1CCN(c2nc(O[C@H](C)CN3CCC(OCCOCCOCCOCCOCCOCC(=O)N[C@H](C(=O)N4C[C@H](O)C[C@H]4C(=O)N[C@@H](C)c4ccc(-c5scnc5C)cc4)C(C)(C)C)CC3)nc3c(F)c(-c4cc(O)cc5ccccc45)c(Cl)cc23)CC1 [compound 402, (2S,4R)-1-((2S)-20-((1-((2R)-2-((4-(4-acryloylpiperazin-1-yl)-6-chloro-8-fluoro-7-(3-hydroxynaphthalen-1-yl)quinazolin-2-yl)oxy)propyl)piperidin-4-yl)oxy)-2-(tert-butyl)-4-oxo-6,9,12,15,18-pentaoxa-3-azaicosanoyl)-4-hydroxy-N-((S)-1-(4-(4-methylthiazol-5-yl)phenyl)ethyl)pyrrolidine-2-carboxamide]

DC50 (KRas [2]; H2030): 100 to 1000 nM | Percent Degradation at Indicated Concentration (μM) (KRas [2]; H2030, 0.03 μM): C (Percent Degradation: C ≤ 35) | Percent Degradation at Indicated Concentration (μM) (KRas [2]; H2030, 0.1 μM): C (Percent Degradation: C ≤ 35) | Percent Degradation at Indicated Concentration (μM) (KRas [2]; H2030, 0.3 μM): C (Percent Degradation: C ≤ 35) | Percent Degradation at Indicated Concentration (μM) (KRas [2]; H2030, 1 μM): C (Percent Degradation: C ≤ 35) | Percent Degradation at Indicated Concentration (μM) (KRas [2]; H2030, 3 μM): C (Percent Degradation: C ≤ 35) | Percent Degradation at Indicated Concentration (μM) (KRas [2]; H2030, 10 μM): C (Percent Degradation: C ≤ 35) | Dmax (KRas [2]): ≤ 35% | DC50 (KRas [3]; SW1573): 100 to 1000 nM | Dmax (KRas [3]; SW1573): 35 to 70% | Percent Degradation at Indicated Concentration (μM) (KRas [3]; SW1573, 0.03 μM): C (Percent Degradation: C ≤ 35) | Percent Degradation at Indicated Concentration (μM) (KRas [3]; SW1573, 0.1 μM): C (Percent Degradation: C ≤ 35) | Percent Degradation at Indicated Concentration (μM) (KRas [3]; SW1573, 0.3 μM): B (35 < B < 70) | Percent Degradation at Indicated Concentration (μM) (KRas [3]; SW1573, 1 μM): B (35 < B < 70) | Percent Degradation at Indicated Concentration (μM) (KRas [3]; SW1573, 3 μM): B (35 < B < 70) | Percent Degradation at Indicated Concentration (μM) (KRas [3]; SW1573, 10 μM): B (35 < B < 70)
Structure (SMILES): C=CC(=O)N1CCN(c2nc(OCCN(C)CCOCCOCCOCCOCC(=O)N[C@H](C(=O)N3C[C@H](O)C[C@H]3C(=O)N[C@@H](C)c3ccc(-c4scnc4C)cc3)C(C)(C)C)nc3c(F)c(-c4cc(O)cc5ccccc45)c(Cl)cc23)CC1 [compound 473, (2S,4R)-1-((2S)-20-((4-(4-acryloylpiperazin-1-yl)-6-chloro-8-fluoro-7-(3-hydroxynaphthalen-1-yl)quinazolin-2-yl)oxy)-2-(tert-butyl)-18-methyl-4-oxo-6,9,12,15-tetraoxa-3,18-diazaicosanoyl)-4-hydroxy-N-((S)-1-(4-(4-methylthiazol-5-yl)phenyl)ethyl)pyrrolidine-2-carboxamide]
